# Measurements published in patent US20240383900A1, “SUBSTITUTED PYRAZOLO [1,5-A]PYRIMIDINE-7-AMINE COMPOUNDS AS CDK INHIBITORS AND THEIR THERAPEUTIC USE” (Carrick Therapeutics Limited, priority 2021, published 2024).
# Read-outs that look alike come from different tables or passages of the source.
# Legend:
# A673 cells [1] = experiment: Cytotoxicity in A673 cells (Cell Titer Glo viability); type: cell-based; conditions: for IC50: Homo sapiens; for Ratio of Biochemical Potency:Cellular Potency: CDK12 IC50 / A673 IC50
# Procedure, shortened: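 Cells plated at 1.2×10^5 per well in DMEM+10% FBS, 24 h, then compound series ± MLN4924 (30 nM final) in 0.1% DMSO for 72 h. Viability by Cell Titer Glo luminescence, normalised to vehicle (100%) and 0.1% Triton x-100 (0%); MLN4924 curves normalised to MLN4924-treated controls.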
# A673 cells [2] = experiment: A673 cytotoxic potency shift in the presence of MLN4924 (cyclin K degrader activity); type: cell-based; conditions: 30 nM MLN4924, 72 hours
# Experimental: Inhibition of cell viability by test compounds was assessed in A673 cells (ATCC CRL-1598) and the compound mode of action was attributed to a “molecular-glue”/cyclin K-degradation mechanism by probing for a loss of compound potency in the presence of the NEDD8-activating enzyme inhibitor, MLN4924.
# Cells were plated in 96-well plates at a density of […] viable cells per well in 200 μL fully supplemented growth medium (DMEM+10% heat inactivated foetal bovine serum) and incubated for 24 hours in standard tissue culture conditions. Compounds, including MLN4924, were solubilised in DMSO and then diluted in fully supplemented growth medium at 2× their final assay concentration such that the final DMSO concentration was 0.1%. Growth medium in the assay plates was replaced with 50 μL of growth medium containing 2×MLN4924 (final assay concentration: 30 nM, where tested) or vehicle only and 50 μL of growth medium containing a 2× compound concentration series or vehicle only such that each compound was at 1× final assay concentration in 100 μL.
# Cells were then incubated for 72 hours in standard tissue culture conditions before viability was assessed using 50 μL Cell Titer Glo reagent (Promega) per well and luminescence measured on an EnVision plate reader. Data were normalised to vehicle control (100%) and cells treated with 0.1% Triton x-100 for 1 hour before viability measurement (0%; full cell kill). IC50 values were determined using a semi-logistic curve fit with parameters “top” fixed at 100% and “bottom” at or below 0%. Viability curves generated in the presence of MLN4924 were normalised and fixed to controls treated with MLN4924.
# Human CDK12 wt/CycK = Human CDK12 wt/CycK (Homo sapiens (Human), UniProt Q9NYV4); experiment: Radiometric protein kinase assay (33PanQinase Activity Assay), CDK12; type: biochemical; conditions: for CDK7/CDK12: ratio of CDK7 IC50 to CDK12 IC50, greater than 1 indicates selectivity for CDK12
# Procedure, shortened: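 Radiometric 33P assay: ATP, test compound (in 10% DMSO) and premixed substrate/enzyme incubated 60 min at 30 °C, stopped with 2% H3PO4. 33Pi incorporation counted by scintillation; least-squares curve fit.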
# Human CDK7/CycH/MAT1 = Human CDK7/CycH/MAT1 (Homo sapiens (Human), UniProt P50613); experiment: Radiometric protein kinase assay (33PanQinase Activity Assay), CDK7; type: biochemical; conditions: ATP 3 μM
# [3] = A673, read-out: Cellular Potency IC50 (nM) (in A673 cells)
# [4] = A673 cells, 72 hours, read-out: A673 IC50
# [5] = ATP 0.3 μM, read-out: CDK12 IC50
# [6] = read-out: CKD12 Biochemical Potency IC50
# Sequence of Human CDK12 wt/CycK (Q9NYV4 whole entry): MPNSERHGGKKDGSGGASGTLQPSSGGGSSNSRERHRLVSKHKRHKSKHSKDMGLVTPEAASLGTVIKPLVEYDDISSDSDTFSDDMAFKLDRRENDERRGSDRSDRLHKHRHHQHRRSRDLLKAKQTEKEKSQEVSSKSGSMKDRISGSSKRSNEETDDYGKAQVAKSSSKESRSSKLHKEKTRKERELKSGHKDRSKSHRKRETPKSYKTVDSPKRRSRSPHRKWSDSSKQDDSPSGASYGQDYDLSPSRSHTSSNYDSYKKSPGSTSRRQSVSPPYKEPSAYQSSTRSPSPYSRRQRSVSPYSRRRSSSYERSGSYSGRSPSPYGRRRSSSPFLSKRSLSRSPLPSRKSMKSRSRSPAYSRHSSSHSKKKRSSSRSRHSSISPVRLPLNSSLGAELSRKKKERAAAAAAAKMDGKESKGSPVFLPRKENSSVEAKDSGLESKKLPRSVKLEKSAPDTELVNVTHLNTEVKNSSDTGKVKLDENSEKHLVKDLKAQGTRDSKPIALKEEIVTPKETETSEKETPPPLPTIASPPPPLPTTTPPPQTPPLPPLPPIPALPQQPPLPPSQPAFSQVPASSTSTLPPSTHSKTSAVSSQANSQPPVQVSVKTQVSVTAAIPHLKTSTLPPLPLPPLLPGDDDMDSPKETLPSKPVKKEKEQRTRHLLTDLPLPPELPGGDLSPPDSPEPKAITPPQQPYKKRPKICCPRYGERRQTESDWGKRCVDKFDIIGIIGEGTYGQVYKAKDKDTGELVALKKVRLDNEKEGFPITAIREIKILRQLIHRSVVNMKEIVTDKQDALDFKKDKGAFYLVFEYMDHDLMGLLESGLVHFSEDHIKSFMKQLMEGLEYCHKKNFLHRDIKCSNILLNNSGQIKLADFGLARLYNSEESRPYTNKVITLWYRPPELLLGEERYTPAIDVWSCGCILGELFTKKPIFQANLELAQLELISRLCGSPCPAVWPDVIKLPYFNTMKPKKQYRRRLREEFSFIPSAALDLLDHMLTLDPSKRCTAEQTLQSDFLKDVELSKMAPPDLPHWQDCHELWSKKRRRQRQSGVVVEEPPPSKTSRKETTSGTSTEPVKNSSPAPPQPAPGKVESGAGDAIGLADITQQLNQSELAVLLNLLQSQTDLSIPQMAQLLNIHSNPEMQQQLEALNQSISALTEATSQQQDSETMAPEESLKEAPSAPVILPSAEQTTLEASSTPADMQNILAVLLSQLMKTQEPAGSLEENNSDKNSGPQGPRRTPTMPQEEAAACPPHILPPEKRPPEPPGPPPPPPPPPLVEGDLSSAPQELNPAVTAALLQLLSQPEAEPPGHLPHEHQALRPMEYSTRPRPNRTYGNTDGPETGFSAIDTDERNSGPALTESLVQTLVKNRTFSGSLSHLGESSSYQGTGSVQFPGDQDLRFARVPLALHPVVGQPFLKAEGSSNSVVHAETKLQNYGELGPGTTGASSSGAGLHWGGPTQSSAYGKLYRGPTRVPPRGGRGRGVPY
# Sequence of Human CDK12 wt/CycK (O75909 whole entry partner): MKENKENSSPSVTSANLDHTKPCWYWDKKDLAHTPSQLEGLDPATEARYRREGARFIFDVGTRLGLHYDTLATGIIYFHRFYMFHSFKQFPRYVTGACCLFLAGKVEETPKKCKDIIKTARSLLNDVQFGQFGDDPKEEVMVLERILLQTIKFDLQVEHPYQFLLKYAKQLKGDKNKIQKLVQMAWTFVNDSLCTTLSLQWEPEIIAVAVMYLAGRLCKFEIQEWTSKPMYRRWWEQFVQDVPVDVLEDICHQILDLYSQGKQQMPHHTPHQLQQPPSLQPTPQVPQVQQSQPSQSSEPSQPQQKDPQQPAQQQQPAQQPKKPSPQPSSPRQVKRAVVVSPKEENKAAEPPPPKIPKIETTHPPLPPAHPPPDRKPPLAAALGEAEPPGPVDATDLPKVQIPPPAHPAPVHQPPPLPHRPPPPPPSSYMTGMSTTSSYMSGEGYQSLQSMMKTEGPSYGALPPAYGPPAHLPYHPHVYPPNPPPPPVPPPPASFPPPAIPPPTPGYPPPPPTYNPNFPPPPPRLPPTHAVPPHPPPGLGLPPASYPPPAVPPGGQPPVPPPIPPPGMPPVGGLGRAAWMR
# Sequence of Human CDK7/CycH/MAT1 (P50613 whole entry): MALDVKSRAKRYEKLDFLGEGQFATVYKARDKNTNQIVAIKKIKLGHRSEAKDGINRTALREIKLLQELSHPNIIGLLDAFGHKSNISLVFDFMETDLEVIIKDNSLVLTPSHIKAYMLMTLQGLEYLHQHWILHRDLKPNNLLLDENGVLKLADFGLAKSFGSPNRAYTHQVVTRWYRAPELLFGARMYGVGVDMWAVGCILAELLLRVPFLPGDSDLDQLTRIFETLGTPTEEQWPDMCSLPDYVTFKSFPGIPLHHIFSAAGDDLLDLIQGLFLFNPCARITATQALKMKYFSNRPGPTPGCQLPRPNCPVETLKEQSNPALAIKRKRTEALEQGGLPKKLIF
# Sequence of Human CDK7/CycH/MAT1 (P51946 whole entry partner): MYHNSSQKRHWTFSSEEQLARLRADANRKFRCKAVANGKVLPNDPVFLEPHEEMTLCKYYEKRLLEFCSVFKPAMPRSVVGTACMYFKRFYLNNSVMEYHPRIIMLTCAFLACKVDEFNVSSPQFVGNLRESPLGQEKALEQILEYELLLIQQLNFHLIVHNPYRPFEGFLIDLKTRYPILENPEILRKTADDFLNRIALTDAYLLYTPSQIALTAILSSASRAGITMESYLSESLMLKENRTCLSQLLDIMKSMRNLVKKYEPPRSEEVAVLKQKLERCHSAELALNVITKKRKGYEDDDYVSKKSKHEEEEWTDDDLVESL
# Sequence of Human CDK7/CycH/MAT1 (P51948 whole entry partner): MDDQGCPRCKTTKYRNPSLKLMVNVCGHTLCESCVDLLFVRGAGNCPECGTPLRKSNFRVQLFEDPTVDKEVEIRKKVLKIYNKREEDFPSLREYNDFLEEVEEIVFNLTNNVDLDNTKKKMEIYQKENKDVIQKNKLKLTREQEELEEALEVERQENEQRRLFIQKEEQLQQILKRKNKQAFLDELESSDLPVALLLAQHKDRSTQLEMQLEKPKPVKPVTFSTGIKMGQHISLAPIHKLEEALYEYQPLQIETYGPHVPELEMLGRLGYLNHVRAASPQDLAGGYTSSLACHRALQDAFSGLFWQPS
structure (smiles),measurement,setting,value
c1cnn(-c2ccc(CNc3cc(N[C@H]4CCCNC4)nc4c(C5CC5)cnn34)cc2)c1 [PPA-099],IC50,A673 cells [1]; [3],1.2 nM
same,IC50,A673 cells [1]; [4],0.9 nM
same,Cyclin K Degrader Activity (A673 potency shift + MLN4924),A673 cells [2],++ (>2 and ≤5 fold change.)
c1ccc(-c2ccc(CNc3cc(C4CCNCC4)nc4c(C5CC5)cnn34)cc2)nc1 [PPA-100],IC50,A673 cells [1]; [3],1.5 nM
same,IC50,A673 cells [1]; [4],43.5 nM
same,Cyclin K Degrader Activity (A673 potency shift + MLN4924),A673 cells [2],+++ (>5 fold change.)
N#Cc1cnn2c(NCc3ccc(-c4ncccn4)cc3)cc(N[C@H]3CCCNC3)nc12 [PPA-094],IC50,A673 cells [1]; [3],0.9 nM
same,IC50,A673 cells [1]; [4],1.9 nM
same,Cyclin K Degrader Activity (A673 potency shift + MLN4924),A673 cells [2],+++ (>5 fold change.)
c1csc(-c2ccc(CNc3cc(N[C@H]4CCNC4)nc4c(C5CC5)cnn34)cc2)n1 [PPA-098],IC50,A673 cells [1]; [3],8.1 nM
same,IC50,A673 cells [1]; [4],3.2 nM
same,Cyclin K Degrader Activity (A673 potency shift + MLN4924),A673 cells [2],+++ (>5 fold change.)
c1ccc(-c2ccc(CNc3cc(N4CCNCC4)nc4c(C5CC5)cnn34)cc2)nc1 [PPA-038],Ratio of Biochemical Potency:Cellular Potency,A673 cells [1],18.55
same,IC50,A673 cells [1]; [3],6.2 nM
same,IC50,A673 cells [1]; [4],6.2 nM
same,IC50,Human CDK12 wt/CycK; [5],115 nM
same,CDK7/CDK12,Human CDK12 wt/CycK,26.3
same,IC50,Human CDK12 wt/CycK; [6],115 nM
same,IC50,Human CDK7/CycH/MAT1,3020 nM
c1cnn(-c2ccc(CNc3cc(OC4CNC4)nc4c(C5CC5)cnn34)cc2)c1 [PPA-097],IC50,A673 cells [1]; [3],3.5 nM
same,IC50,A673 cells [1]; [4],0.4 nM
same,Cyclin K Degrader Activity (A673 potency shift + MLN4924),A673 cells [2],+++ (>5 fold change.)
"CC(C)c1cnn2c(NCc3ccc(-c4ccncc4)cc3)cc(NC[C@H]3CCNC[C@@H]3O)nc12 [PPA-002, (3R,4R)-4-(((3-isopropyl-7-((4-(pyridin-4-yl)benzyl)amino)pyrazolo[1,5-a]pyrimidin-5-yl)amino)methyl)piperidin-3-ol]",Ratio of Biochemical Potency:Cellular Potency,A673 cells [1],0.27
same,IC50,A673 cells [1]; [3],127 nM
same,IC50,A673 cells [1]; [4],127 nM
same,IC50,Human CDK12 wt/CycK; [5],34 nM
same,CDK7/CDK12,Human CDK12 wt/CycK,2.3
same,IC50,Human CDK12 wt/CycK; [6],34 nM
same,IC50,Human CDK7/CycH/MAT1,79 nM
Cc1nccn1-c1ccc(CNc2cc(NC[C@H]3CCNC[C@@H]3O)nc3c(C4CC4)cnn23)cc1 [PPA-023],Ratio of Biochemical Potency:Cellular Potency,A673 cells [1],<0.47
same,IC50,A673 cells [1]; [3],> 500 nM
same,IC50,A673 cells [1]; [4],> 500 nM
same,IC50,Human CDK12 wt/CycK; [5],236 nM
same,CDK7/CDK12,Human CDK12 wt/CycK,0.5
same,IC50,Human CDK12 wt/CycK; [6],236 nM
same,IC50,Human CDK7/CycH/MAT1,113 nM
O[C@H]1CNCC[C@@H]1CNc1cc(NCc2ccc(-c3ncccn3)cc2)n2ncc(C3CC3)c2n1 [PPA-029],Ratio of Biochemical Potency:Cellular Potency,A673 cells [1],45.00
same,IC50,A673 cells [1]; [3],1.4 nM
same,IC50,A673 cells [1]; [4],1.4 nM
same,IC50,Human CDK12 wt/CycK; [5],63 nM
same,CDK7/CDK12,Human CDK12 wt/CycK,2.8
same,IC50,Human CDK12 wt/CycK; [6],63 nM
same,IC50,Human CDK7/CycH/MAT1,179 nM
c1ccc(-c2ccc(CNc3cc(N4CC5(CCNCC5)C4)nc4c(C5CC5)cnn34)cc2)nc1 [PPA-042],Ratio of Biochemical Potency:Cellular Potency,A673 cells [1],8.69
same,IC50,A673 cells [1]; [3],232 nM
same,IC50,A673 cells [1]; [4],232 nM
same,IC50,Human CDK12 wt/CycK; [5],2020 nM
same,CDK7/CDK12,Human CDK12 wt/CycK,5.1
same,IC50,Human CDK12 wt/CycK; [6],2020 nM
same,IC50,Human CDK7/CycH/MAT1,10300 nM
Cc1n[nH]cc1-c1cc(NCc2ccc(-c3ccccn3)cc2)n2ncc(C3CC3)c2n1 [PPA-095],IC50,A673 cells [1]; [3],43.5 nM
same,IC50,A673 cells [1]; [4],4.7 nM
same,Cyclin K Degrader Activity (A673 potency shift + MLN4924),A673 cells [2],+ (>1 and ≤2 fold change.)
NC1CN(c2cc(NCc3ccc(-c4ccccn4)cc3)n3ncc(C4CC4)c3n2)C1 [PPA-057],Ratio of Biochemical Potency:Cellular Potency,A673 cells [1],24.65
same,IC50,A673 cells [1]; [3],50.3 nM
same,IC50,A673 cells [1]; [4],50.3 nM
same,IC50,Human CDK12 wt/CycK; [5],1240 nM
same,CDK7/CDK12,Human CDK12 wt/CycK,10.7
same,IC50,Human CDK12 wt/CycK; [6],1240 nM
same,IC50,Human CDK7/CycH/MAT1,13300 nM
Cc1cccnc1-c1ccc(CNc2cc(NC[C@H]3CCNC[C@@H]3O)nc3c(C(C)C)cnn23)cc1 [PPA-012],Ratio of Biochemical Potency:Cellular Potency,A673 cells [1],13.33
same,IC50,A673 cells [1]; [3],14.1 nM
same,IC50,A673 cells [1]; [4],14.1 nM
same,IC50,Human CDK12 wt/CycK; [5],188 nM
same,CDK7/CDK12,Human CDK12 wt/CycK,0.9
same,IC50,Human CDK12 wt/CycK; [6],188 nM
same,IC50,Human CDK7/CycH/MAT1,165 nM
O=C1CC(CNc2cc(NCc3ccc(-c4ccccn4)cc3)n3ncc(C4CC4)c3n2)CCN1 (centres unmarked) [PPA-051],Ratio of Biochemical Potency:Cellular Potency,A673 cells [1],22.98
same,IC50,A673 cells [1]; [3],28.9 nM
same,IC50,A673 cells [1]; [4],28.9 nM
same,IC50,Human CDK12 wt/CycK; [5],664 nM
same,CDK7/CDK12,Human CDK12 wt/CycK,16.9
same,IC50,Human CDK12 wt/CycK; [6],664 nM
same,IC50,Human CDK7/CycH/MAT1,11200 nM
O[C@H]1CNCC[C@@H]1CNc1cc(NCc2ccc(-c3ccccn3)cc2)n2ncc(Cl)c2n1 [PPA-016],Ratio of Biochemical Potency:Cellular Potency,A673 cells [1],110.00
same,IC50,A673 cells [1]; [3],0.2 nM
same,IC50,A673 cells [1]; [4],0.2 nM
same,IC50,Human CDK12 wt/CycK; [5],22 nM
same,CDK7/CDK12,Human CDK12 wt/CycK,4.3
same,IC50,Human CDK12 wt/CycK; [6],22 nM
same,IC50,Human CDK7/CycH/MAT1,94 nM
CCc1cnn2c(NCc3ccc(-c4ccccn4)cc3F)cc(NC[C@H]3CCNC[C@@H]3O)nc12 [PPA-068],Ratio of Biochemical Potency:Cellular Potency,A673 cells [1],28.00
same,IC50,A673 cells [1]; [3],1.5 nM
same,IC50,A673 cells [1]; [4],1.5 nM
same,IC50,Human CDK12 wt/CycK; [5],42 nM
same,CDK7/CDK12,Human CDK12 wt/CycK,7.7
same,IC50,Human CDK12 wt/CycK; [6],42 nM
same,IC50,Human CDK7/CycH/MAT1,323 nM
O[C@H]1CNCC[C@@H]1CNc1cc(NCc2ccc(-c3ccccn3)cn2)n2ncc(C3CC3)c2n1 [PPA-021],Ratio of Biochemical Potency:Cellular Potency,A673 cells [1],9.20
same,IC50,A673 cells [1]; [3],7.5 nM
same,IC50,A673 cells [1]; [4],7.5 nM
same,IC50,Human CDK12 wt/CycK; [5],69 nM
same,CDK7/CDK12,Human CDK12 wt/CycK,5.7
same,IC50,Human CDK12 wt/CycK; [6],69 nM
same,IC50,Human CDK7/CycH/MAT1,393 nM
CC(C)c1cnn2c(NCc3ccc(-c4ncccc4F)cc3)cc(NC[C@H]3CCNC[C@@H]3O)nc12 [PPA-014],Ratio of Biochemical Potency:Cellular Potency,A673 cells [1],11.56
same,IC50,A673 cells [1]; [3],6.4 nM
same,IC50,A673 cells [1]; [4],6.4 nM
same,IC50,Human CDK12 wt/CycK; [5],74 nM
same,CDK7/CDK12,Human CDK12 wt/CycK,1.0
same,IC50,Human CDK12 wt/CycK; [6],74 nM
same,IC50,Human CDK7/CycH/MAT1,72 nM
"CC(C)c1cnn2c(NCc3ccc(-c4cccnc4)cc3)cc(NC[C@H]3CCNC[C@@H]3O)nc12 [PPA-003, (3R,4R)-4-(((3-isopropyl-7-((4-(pyridin-3-yl)benzyl)amino)pyrazolo[1,5-a]pyrimidin-5-yl)amino)methyl)piperidin-3-ol]",Ratio of Biochemical Potency:Cellular Potency,A673 cells [1],2.90
same,IC50,A673 cells [1]; [3],16.2 nM
same,IC50,A673 cells [1]; [4],16.2 nM
same,IC50,Human CDK12 wt/CycK; [5],47 nM
same,CDK7/CDK12,Human CDK12 wt/CycK,1.6
same,IC50,Human CDK12 wt/CycK; [6],47 nM
same,IC50,Human CDK7/CycH/MAT1,76 nM
O[C@H]1CNCC[C@@H]1CNc1cc(NCc2ccc(-c3ccccc3)cc2F)n2ncc(C3CC3)c2n1 [PPA-066],Ratio of Biochemical Potency:Cellular Potency,A673 cells [1],7.13
same,IC50,A673 cells [1]; [3],24.4 nM
same,IC50,A673 cells [1]; [4],24.4 nM
same,IC50,Human CDK12 wt/CycK; [5],174 nM
same,CDK7/CDK12,Human CDK12 wt/CycK,5.2
same,IC50,Human CDK12 wt/CycK; [6],174 nM
same,IC50,Human CDK7/CycH/MAT1,912 nM
